Assays:
[1] = humans; split by hydrolases in the small intestine; cited from earlier work
[2] = guinea pigs; split by α-glucosidase in brush border of small intestine; cited from earlier work
[3] = In vitro estimation of iron dialyzability (dough, simulated gastrointestinal conditions)
Protocol: All glass vessels used were incubated over night in 10% (v/v) HNO3 in water and subsequently rinsed with demineralised water. […] The dough was divided in portions of 16 g and stored at −20° C. until dissolution experiments took place.
The dough portions were suspended in water and homogenized for 10 s with a Braun Blender (type 4142) set at maximum speed. Subsequently, water, 0.45 g pepsin and HCl were added to a yield a 90 ml suspension of dough in simulated gastric fluid of pH 2.0. A 20 g sample was taken from the homogenous suspension for determination of total iron. The suspension was transferred to the vessel of a dissolution apparatus (VanK1 VK700, Varian; United States Pharmacopoeia (USP) dissolution apparatus, type II. Conditions for rotations per minute enzyme types and concentrations etc. taken as in the USP; <711> Dissolution; USP26/NF21; 2003; p. 1578-1579). […]
Dialyzable iron (sum of Fe^2+ and Fe^3+) was determined using a Hitachi 912 Analyser and reagents for the analysis of iron in human serum based on FerroZine (Roche Diagnostics Nederland BV). […]
Dialyzable iron is expressed as the percentage of the total iron present in the digest, assuming that it had equilibrated across the dialysis membrane by the time the content of the dialysis bag was collected.

Row | Compound | Free ascorbic acid in the blood after consumption [1] | Intestinal absorption of intact compound [2] | In vitro dialyzable Ionic iron (% of total iron) ([3]; dough with 50 mg/Kg iron from ferrous sulphate, Fe:enhancer 1:3, means ± SD of 4 or 5 experiments) | Relative availability ([3]; relative to the availability of iron from FeSO4)
1 | O=C1O[C@H]([C@@H](O)CO)C(O)=C1O[C@H]1O[C@H](CO)[C@@H](O)[C@H](O)[C@H]1O [AA-2G, 2-O-α-D-glucopyranosyl-L-ascorbic acid] | significant increase in free ascorbic acid in the blood | cannot be absorbed |  | 
2 | O=S(=O)([O-])[O-].[Fe+2] [Ferrous sulphate, ferrous sulphate] |  |  | 3.4 ± 1.8 % of total iron | 1.0
